Experimental data as given in article PMC11748363, “Antimicrobial and Antiproliferative Properties of 2‐Phenyl‐N‐(Pyridin‐2‐yl)acetamides” (Chemical Biology & Drug Design, 2025).
Converted amounts (≈) assume the structure as drawn. Like-named read-outs stand apart in the source and are kept apart here.

Assays:
[1] = tested on: Escherichia coli CCM 3954, ATCC 25922; assay: Antibacterial microdilution broth MIC, EC; type: cell-based
[2] = tested on: Trichophyton interdigitale CCM 8377, ATCC 9533; assay: Antifungal microdilution broth MIC, TI; details: Trichophyton interdigitale
[3] = tested on: Candida tropicalis CCM 8264, ATCC 750; assay: Antifungal microdilution broth MIC, CT
[4] = tested on: Aspergillus fumigatus ATCC 204305; assay: Antifungal microdilution broth MIC, AF
[5] = tested on: Mycolicibacterium smegmatis DSM 43465; assay: Antimycobacterial microdilution broth MIC (resazurin), M. smegmatis; type: cell-based; details: DSM43465, read-out: MIC M. smegmatis
[6] = tested on: Pseudomonas aeruginosa CCM 3955, ATCC 27853; assay: Antibacterial microdilution broth MIC, PA; type: cell-based
PC‐3 cell line = assay: Cytotoxicity CellTiter 96, PC-3; type: cell-based; details: Homo sapiens, 24 h incubation
Procedure: (§1) The cytotoxicity of final compounds was determined in human hepatocellular carcinoma cell line HepG2. Additional testing of selected compounds was performed on human epithelial kidney cancer cell line A498, human prostate cancer cell line PC‐3, human glioblastoma cell line U‐87 MG, and normal human proximal tubule cell line HK‐2.
Cytotoxicity determination […]
(§2) For subculturing, the cells were harvested after trypsin/EDTA (Sigma–Aldrich) treatment at 37 °C. To evaluate cytotoxicity, the cells treated with the tested substances were used as experimental groups whereas untreated HepG2 cells served as controls. The cells were seeded in density 10,000 cells per well in a 96 well plate. The next day the cells were treated with each of the tested substances dissolved in DMSO. The tested substances were […]
in triplicates according to their solubility. Simultaneously, the controls representing 100% cell viability, 0% cell viability (the cells treated with 10% DMSO), no cell control and vehiculum controls were also […]
the reagent from the kit CellTiter 96 AQueous One Solution Cell Proliferation Assay (CellTiter 96; PROMEGA, Fitchburg, USA) was added. After 2h incubation at 37 °C, absorbance of samples was recorded at 490 nm (TECAN, Infinita M200, Austria). A standard toxicological parameter IC50 was calculated by nonlinear regression from a semilogarithmic plot of incubation concentration versus percentage of absorbance relative to untre ated controls using GraphPad Prism 8 software. […]
Kaighn's Modification of Ham's F-12 Medium and human glioblastoma astrocytoma U-87 MG cell line, […]
Glucose medium. All cultures were supplemented with 10% fetal bovine serum, 1% non-essential amino acids (A498, HK-2 and U-87 MG), 1% sodium pyruvate (A498, HK-2 and U-87 MG) and 2 mM L-glutamine. All cell culture consumables were purchased from Merck (Darmstadt, Germany). The cells

[7] = tested on: Candida parapsilosis CCM 8260, ATCC 22019; assay: Antifungal microdilution broth MIC, CP; details: Lodderomyces parapsilosis
[8] = tested on: Lichtheimia corymbifera CCM 8077; assay: Antifungal microdilution broth MIC, LC
HK‐2 cell line = assay: Cytotoxicity CellTiter 96, HK-2 normal cell line; type: cell-based; details: Homo sapiens, 24 h incubation
Procedure: as §1
1.4. Cytotoxicity determination […]
as §2
in triplicates according to their solubility. Simultaneously, the controls representing 100% cell viability, 0% cell viability (the cells treated with 10% DMSO), no cell control and vehiculum controls were also prepared in triplicates. After 24 h incubation in a humidified atmosphere containing 5% CO2 at […], the reagent from the kit CellTiter 96 AQueous One Solution Cell Proliferation Assay (CellTiter 96; PROMEGA, Fitchburg, USA) was added. After 2h incubation at 37 °C, absorbance of samples was recorded at 490 nm (TECAN, Infinita M200, Austria). A standard toxicological parameter IC50 was calculated by nonlinear regression from a semilogarithmic plot of incubation concentration versus percentage of absorbance relative to untre ated controls using GraphPad Prism 8 software.
Human epithelial kidney carcinoma A498 cell line, obtained from American Type Culture Collection (ATCC, Manassas, VA, USA, catalogue No.: HTB -44), was cultured in RPMI medium, Human normal kidney proximal tubule HK-2 cell line obtained from ATCC (ATCC, Manassas, VA, USA, catalogue No.:
CRL-2190) was cultured in DMEM High Glucose medium, Human prostate adenocarcinoma PC-3 cell line, obtained from ATCC (Manassas, VA, USA, catalogue No.: 90112714), was cultured in a Kaighn's Modification of Ham's F-12 Medium and human glioblastoma astrocytoma U-87 MG cell line, obtained from ECACC (ECACC, Salisbury, UK, catalogue No.: 89081402) was cultured in DMEM High Glucose medium. All cultures were supplemented with 10% fetal bovine serum, 1% non-essential amino acids (A498, HK-2 and U-87 MG), 1% sodium pyruvate (A498, HK-2 and U-87 MG) and 2 mM L-glutamine. […]
Simultaneously, the controls representing 100% cell viability, 0% cell viability (the cells treated with 10% DMSO), no cell control and vehiculum controls were also prepared in triplicates. […] Eventually, a colorimetric assay reagent CellTiter 96 AQueous One Solution Cell Proliferation Assay was added, and absorption was measured.

[9] = tested on: Candida albicans CCM 8320, ATCC 24433; assay: Antifungal microdilution broth MIC, CA
[10] = tested on: Aspergillus flavus CCM 8363; assay: Antifungal microdilution broth MIC, AFla
[11] = tested on: Staphylococcus epidermidis CCM 4418, ATCC 12228; assay: Antibacterial microdilution broth MIC, SE; type: cell-based
[12] = ATCC204305, 24 h, read-out: MIC AF 24h
[13] = ATCC204305, 48 h, read-out: MIC AF 48h
[14] = CCM8077, 24 h, read-out: MIC LC 24h
[15] = CCM8077, 48 h, read-out: MIC LC 48h
[16] = CCM8363, 24 h, read-out: MIC AFla 24h
[17] = CCM8363, 48 h, read-out: MIC AFla 48h

Work on `O=C(Cc1cccc(C(F)(F)F)c1)Nc1ccc(Cl)cn1` [Compound 26] yielded an MIC ([1]; 24 h, read-out: MIC EC 24h) of over 500 µM, an MIC ([1]; 48 h, read-out: MIC EC 48h) of over 500 µM and an MIC ([2]; 72 h, read-out: MIC TI 72h) of 500 µM (≈ 157 µg/mL). It also gave an MIC ([2]; 120 h, read-out: MIC TI 120h) of 500 µM (≈ 157 µg/mL), an MIC ([3]; 24 h, read-out: MIC CT 24h) of over 500 µM and an MIC ([3]; 48 h, read-out: MIC CT 48h) of over 500 µM. The MIC [4, 12] was over 500 µM, the MIC [4, 13] was over 500 µM and the MIC [5] was 125 µg/mL (≈ 397 µM). For the same compound, the MIC ([6]; 24 h, read-out: MIC PA 24h) was over 500 µM, the MIC ([6]; 48 h, read-out: MIC PA 48h) was over 500 µM and the IC50 (PC‐3 cell line) was 73.1 µM. It also gave an MIC ([7]; 24 h, read-out: MIC CP 24h) of over 500 µM, an MIC ([7]; 48 h, read-out: MIC CP 48h) of over 500 µM and an MIC [8, 14] of over 500 µM. For the same compound, the MIC [8, 15] was over 500 µM, the IC50 (HK‐2 cell line) was 29.9 µM and the MIC ([9]; 24 h, read-out: MIC CA 24h) was over 500 µM. The MIC ([9]; 48 h, read-out: MIC CA 48h) was over 500 µM, the MIC [10, 16] was over 500 µM and the MIC [10, 17] was over 500 µM. It also gave an MIC ([11]; 24 h, read-out: MIC SE 24h) of over 500 µM and an MIC ([11]; 48 h, read-out: MIC SE 48h) of over 500 µM.

Compound `O=C(Cc1ccccc1C(F)(F)F)Nc1cccc(Cl)n1` [Compound 24] has an MIC ([1]; 24 h, read-out: MIC EC 24h) of over 500 µM, an MIC ([1]; 48 h, read-out: MIC EC 48h) of over 500 µM and an MIC ([2]; 72 h, read-out: MIC TI 72h) of 500 µM (≈ 157 µg/mL). For the same compound, the MIC ([2]; 120 h, read-out: MIC TI 120h) was 500 µM (≈ 157 µg/mL), the MIC ([3]; 24 h, read-out: MIC CT 24h) was over 500 µM and the MIC ([3]; 48 h, read-out: MIC CT 48h) was over 500 µM. The MIC [4, 12] was over 500 µM, the MIC [4, 13] was over 500 µM and the MIC [5] was over 500 µg/mL. It also gave an MIC ([6]; 24 h, read-out: MIC PA 24h) of over 500 µM, an MIC ([6]; 48 h, read-out: MIC PA 48h) of over 500 µM and an IC50 (PC‐3 cell line) of over 100 µM. It also gave an MIC ([7]; 24 h, read-out: MIC CP 24h) of over 500 µM, an MIC ([7]; 48 h, read-out: MIC CP 48h) of over 500 µM and an MIC [8, 14] of over 500 µM. The MIC [8, 15] was over 500 µM, the IC50 (HK‐2 cell line) was 247 µM and the MIC ([9]; 24 h, read-out: MIC CA 24h) was over 500 µM. For the same compound, the MIC ([9]; 48 h, read-out: MIC CA 48h) was over 500 µM, the MIC [10, 16] was over 500 µM and the MIC [10, 17] was over 500 µM. The MIC ([11]; 24 h, read-out: MIC SE 24h) was over 500 µM and the MIC ([11]; 48 h, read-out: MIC SE 48h) was over 500 µM.

`O=C(Cc1cccc(Cl)c1)Nc1ccc(Cl)cn1` [Compound 17, 2-(3-chlorophenyl)-N-(5-chloropyridin-2-yl)acetamide] was tested, and the MIC ([1]; 24 h, read-out: MIC EC 24h) was over 500 µM, the MIC ([1]; 48 h, read-out: MIC EC 48h) was over 500 µM and the MIC ([2]; 72 h, read-out: MIC TI 72h) was 500 µM (≈ 141 µg/mL). For the same compound, the MIC ([2]; 120 h, read-out: MIC TI 120h) was 500 µM (≈ 141 µg/mL), the MIC ([3]; 24 h, read-out: MIC CT 24h) was over 500 µM and the MIC ([3]; 48 h, read-out: MIC CT 48h) was over 500 µM. The MIC [4, 12] was over 500 µM, the MIC [4, 13] was over 500 µM and the MIC [5] was over 500 µg/mL. It also gave an MIC ([6]; 24 h, read-out: MIC PA 24h) of over 500 µM, an MIC ([6]; 48 h, read-out: MIC PA 48h) of over 500 µM and an IC50 (PC‐3 cell line) of 213 µM. For the same compound, the MIC ([7]; 24 h, read-out: MIC CP 24h) was over 500 µM, the MIC ([7]; 48 h, read-out: MIC CP 48h) was over 500 µM and the MIC [8, 14] was over 500 µM. For the same compound, the MIC [8, 15] was over 500 µM, the IC50 (HK‐2 cell line) was 138 µM and the MIC ([9]; 24 h, read-out: MIC CA 24h) was over 500 µM. The MIC ([9]; 48 h, read-out: MIC CA 48h) was over 500 µM, the MIC [10, 16] was over 500 µM and the MIC [10, 17] was over 500 µM. For the same compound, the MIC ([11]; 24 h, read-out: MIC SE 24h) was over 500 µM and the MIC ([11]; 48 h, read-out: MIC SE 48h) was over 500 µM.

`COc1ccc(CC(=O)Nc2cccc(Cl)n2)cc1` [Compound 12, 2-(4-methoxyphenyl)-N-(6-chloropyridin-2-yl)acetamide] was tested, and the MIC ([1]; 24 h, read-out: MIC EC 24h) was over 500 µM, the MIC ([1]; 48 h, read-out: MIC EC 48h) was over 500 µM and the MIC ([2]; 72 h, read-out: MIC TI 72h) was over 500 µM. The MIC ([2]; 120 h, read-out: MIC TI 120h) was over 500 µM, the MIC ([3]; 24 h, read-out: MIC CT 24h) was over 500 µM and the MIC ([3]; 48 h, read-out: MIC CT 48h) was over 500 µM. The MIC [4, 12] was over 500 µM, the MIC [4, 13] was over 500 µM and the MIC [5] was 62.5 µg/mL (≈ 226 µM). The MIC ([6]; 24 h, read-out: MIC PA 24h) was over 500 µM, the MIC ([6]; 48 h, read-out: MIC PA 48h) was over 500 µM and the MIC ([7]; 24 h, read-out: MIC CP 24h) was over 500 µM. The MIC ([7]; 48 h, read-out: MIC CP 48h) was over 500 µM, the MIC [8, 14] was over 500 µM and the MIC [8, 15] was over 500 µM. It also gave an IC50 (HK‐2 cell line) of over 250 µM, an MIC ([9]; 24 h, read-out: MIC CA 24h) of over 500 µM and an MIC ([9]; 48 h, read-out: MIC CA 48h) of over 500 µM. It also gave an MIC [10, 16] of over 500 µM, an MIC [10, 17] of over 500 µM and an MIC ([11]; 24 h, read-out: MIC SE 24h) of 500 µM (≈ 138 µg/mL). The MIC ([11]; 48 h, read-out: MIC SE 48h) was over 500 µM.
